According to patent US5789654A, “Transgenic animals deficient in endogenous β3 -adrenergic receptor and uses thereof” (Beth Israel Hospital Association, priority 1996, dated 1998):
Like-named read-outs stand apart in the source and are kept apart here.

Columns and labels:
β3 -AR [1] = experiment: Effect of a single dose on food intake; format: in vivo, mouse; conditions: β3 -AR-deficient mice; 1 mg/kg intraperitoneal; twenty-four hours
Description: (§1) FIG. 9 is a graph showing the effect of a single dose of CL 316,243 on food intake. […] The mice were housed individually during the test period, and results for each group are the mean of five animals (±S.E.). Food intake was determined during the twenty-four hours following CL 316,243 or saline treatment.
(§2) To acclimate the mice to injections and handling, saline was injected daily for three days preceding day zero of the study. The mice were housed individually during the study. Food was weighed before injection and twenty-four hours after, and the differences were assumed to represent grams of food eaten per day. The cages were inspected for food spillage, and none was noted.

[2] = tested on: isolated white adipocytes; experiment: Lipolysis (glycerol release) in isolated white adipocytes; format: cell-based, mouse; conditions: +ADA
Description: (§3) To determine the functional consequences of β3 -AR deficiency on β-adrenergic signalling, the effects of β-adrenergic agonists on adenylate cyclase activity and lipolysis were assessed. For determination of adenylate cyclase activity (FIG. 5), plasma membranes were obtained from isolated white adipocytes or interscapular brown adipose tissue, and then were incubated in the presence of various agonists. […] To assess lipolysis (FIGS. 6A and 6B), white adipocytes were isolated from epididymal fat pads, and then incubated in the presence of various agonists. Rates of lipolysis were determined by quantitating the release of glycerol.
For analysis of lipolysis, isolated white adipocytes (100 μl of a 10% isolate fat cell suspension) were incubated in a final volume of 500 μl, and glycerol release was measured over a fifteen minute period. […] Except where noted, the incubation medium consisted of a Krebs-Ringer-Hepes (30 mM) buffer (pH 7.4) supplemented with 2.5% bovine serum albumin (fraction V), 10 μM PIA (N^6 -[R-(-)-1-methyl-2-phenyl]adenosine), 1 unit/ml adenosine deaminase, and varying concentrations of agonists.

β3 -AR [3] = target: T1, β3 -AR (Mus musculus, UniProt P25962); format: in vivo; design: endogenous in cells; host or cells: whole mice (control +/+ and beta-3-AR-deficient -/-, FVB background)
T1 sequence (P25962 whole entry): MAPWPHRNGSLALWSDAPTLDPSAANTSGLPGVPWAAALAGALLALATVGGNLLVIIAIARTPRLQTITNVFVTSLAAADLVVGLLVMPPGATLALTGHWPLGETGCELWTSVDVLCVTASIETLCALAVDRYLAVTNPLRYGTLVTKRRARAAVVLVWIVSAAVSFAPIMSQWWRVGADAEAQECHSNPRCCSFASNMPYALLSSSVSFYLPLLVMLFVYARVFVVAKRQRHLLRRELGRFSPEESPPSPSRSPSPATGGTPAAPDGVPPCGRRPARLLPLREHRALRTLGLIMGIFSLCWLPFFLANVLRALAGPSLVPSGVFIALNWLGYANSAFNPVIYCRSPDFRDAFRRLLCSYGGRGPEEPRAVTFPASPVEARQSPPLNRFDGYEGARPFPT
Description: (§4) To determine the effect of β3 -AR deficiency on β-adrenergicsignaling in vivo, various adrenergic agonists were administered to control and knockout mice, and the effects on serum levels of FFAs, glycerol, and thermogenesis were assessed.
(§5) Whole blood was collected and analyzed for blood glucose levels (One Touch Blood Glucose Meter, Lifescan, Inc., Milpitas, Calif.). Serum was then isolated and assayed for FFAs (NEFA C kit, Wako Pure Chemical Industries, Ltd.), glycerol (GPO-Trinder Kit, procedure 337, Sigma), and insulin (rat insulin kit, Linco Research Inc., St. Louis, Mo.) according to the manufacturers' protocols.

β3 -AR [4] = format: biochemical, mouse; conditions: for reduction of stimulatory effect on adenylate cyclase activity: β3 -AR-deficient vs wild type
Description: as §3

β3 -AR [5] = target: T1, β3 -AR; format: biochemical; design: plasma membranes of isolated white adipocytes (epididymal) or interscapular brown adipose tissue; -/- mice are null control; conditions: wild type mice; maximally effective / effective doses
Description: as §3

β3 -AR [6] = target: T1, β3 -AR; experiment: Effect of a single dose on food intake; format: in vivo; design: endogenous in cells; host or cells: whole mice (control +/+ and beta-3-AR-deficient -/-, FVB background); conditions: control mice; 1 mg/kg intraperitoneal; twenty-four hours
Description: as §1, §2

β3 -AR [7] = format: in vivo, mouse; conditions: for stimulated oxygen consumption: β3 -AR-deficient male mice vs control
Description: (§6) Mice that received norepinephrine were anesthetized with pentobarbital for the study.
(§7) Oxygen consumption was measured as described by Lowell et al. (supra) in twelve-week-old control, β3 -AR-deficient male mice, and β3 -AR-deficient knockout mice expressing the human β3-AR gene.

β3 -AR [8] = experiment: Acute effect on plasma insulin and blood glucose; format: in vivo, mouse; conditions: β3 -AR-deficient mice; 1 mg/kg intraperitoneal
Source text: (§8) FIGS. 8A-B are graphs showing the acute effect of saline or CL 316,243 on plasma insulin and blood glucose concentrations. […] Blood was obtained from the tail fifteen minutes after […]. The results are expressed as the mean ±S.E. (+/+=seven mice, -/-=four mice).
as §5

β3 -AR [9] = format: in vivo, mouse; conditions: for FFA: serum, fifteen minutes after injection
Description: as §4, §5

β3 -AR [10] = target: T1, β3 -AR; format: in vivo; design: plasma membranes of isolated white adipocytes (epididymal) or interscapular brown adipose tissue; -/- mice are null control; conditions: control mice; 1.0 mg/kg subcutaneously
Description: as §6, §7

β3 -AR [11] = target: T1, β3 -AR; experiment: Acute effect on plasma insulin and blood glucose; format: in vivo; design: plasma membranes of isolated white adipocytes (epididymal) or interscapular brown adipose tissue; -/- mice are null control; conditions: control mice; 1 mg/kg intraperitoneal, fifteen minutes
Source text: as §8, §5

human β3 -AR = target: T2, human β3 -AR (Homo sapiens, UniProt P13945); experiment: O2 consumption in knockout mice expressing the reconstituted human β3 -AR; format: in vivo, mouse; conditions: 10 mg/ml
T2 construct: reconstituted with an 80 kb β3 -AR human genomic clone; expressed in transfected cells; host or cells: transgenic beta-3-AR-deficient mice (human genomic P1 insert injected into zygotes; mRNA detected in brown adipose tissue only)
T2 sequence (P13945 whole entry): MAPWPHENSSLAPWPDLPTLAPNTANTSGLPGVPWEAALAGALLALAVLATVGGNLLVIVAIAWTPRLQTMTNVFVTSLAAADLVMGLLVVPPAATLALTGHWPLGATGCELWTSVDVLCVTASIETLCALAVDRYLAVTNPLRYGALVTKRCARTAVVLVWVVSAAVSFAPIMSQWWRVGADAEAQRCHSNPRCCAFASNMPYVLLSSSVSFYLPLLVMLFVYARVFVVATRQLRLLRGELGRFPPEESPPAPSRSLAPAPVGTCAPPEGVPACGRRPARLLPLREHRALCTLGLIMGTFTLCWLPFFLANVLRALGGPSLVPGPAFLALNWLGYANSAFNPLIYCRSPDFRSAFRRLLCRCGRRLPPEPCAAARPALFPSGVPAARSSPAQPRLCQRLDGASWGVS
Description: The effects on oxygen consumption were then assessed according to standard methods (e.g., those described herein).
as §7

C[C@H](Cc1ccc2c(c1)OC(C(=O)O)(C(=O)O)O2)NC[C@H](O)c1cccc(Cl)c1 [CL 316,243]
effect on food intake (β3 -AR [1]): completely ineffective
lipolysis in adipocytes ([2]; wild type mice, +PIA): stimulated
lipolysis in adipocytes ([2]; β3 -AR-deficient mice, +PIA): absent
increase in serum FFA levels (β3 -AR [3]; control mice): 3.2 fold
FFA (β3 -AR [3]; serum, fifteen minutes after injection, female +/+): 2,260 ± 350 μM
adenylate cyclase activity in membranes (β3 -AR [4]; β3 -AR-deficient mice, maximally effective doses): absent
adenylate cyclase activity in membranes (β3 -AR [5]): stimulated
reduction in food intake (β3 -AR [6]): forty-five
increase in oxygen consumption (β3 -AR [7]; β3 -AR-deficient mice, 1.0 mg/kg subcutaneously): totally absent
effect on blood glucose (β3 -AR [8]): completely without effect
effect on plasma insulin levels (β3 -AR [8]): completely without effect
FFA (β3 -AR [9]; female -/-): 630 ± 140 µM
increase in serum FFA levels (β3 -AR [9]; β3 -AR-deficient mice): totally absent
increase in oxygen consumption (β3 -AR [10]): 2 fold
increase in plasma insulin levels (β3 -AR [11]): 140 fold
reduction in blood glucose (β3 -AR [11]): fifty-six

CC(C)NCC(O)c1ccc(O)c(O)c1 (stereo not shown) [isoproterenol]
stimulation of lipolysis ([2]; wild type adipocytes, maximally effective concentration, +PIA): about five
reduction of stimulated lipolysis ([2]; β3 -AR-deficient adipocytes, -PIA): about thirty-three
lipolysis in adipocytes ([2]; β3 -AR-deficient mice, +PIA): absent
reduction of stimulatory effect on adenylate cyclase activity (β3 -AR [4]; membranes derived from brown adipose tissue): seventy
reduction of stimulatory effect on adenylate cyclase activity (β3 -AR [4]; membranes derived from isolated white adipocytes): eighty
stimulated oxygen consumption (β3 -AR [7]; 0.3 mg/kg subcutaneously, awake): not significantly reduced
Glycerol (β3 -AR [9]; mouse, in vivo): 239 ± 15 µM
FFA (β3 -AR [9]; male -/-): 1.510 ± 20 µM

C[C@H](Cc1ccccc1)Nc1ncnc2c1ncn2[C@@H]1O[C@H](CO)[C@@H](O)[C@H]1O [PIA, N^6-[R-(-)-1-methyl-2-phenyl]adenosine]
inhibition of isoproterenol-stimulated lipolysis ([2]; control adipocytes, with vs without PIA (10 μM)): only minimally inhibited

Adrenocorticotropic hormone (SYSMEHFRWGKPVGKKRRPVKVYPNGAEDESAEAFPLEF; Corticotropin; UniProt P01189 138-176, looked up) [ACTH, hormone that stimulates lipolysis via a seven-transmembrane receptor Gαs -adenylate cyclase-coupled mechanism]
lipolysis in adipocytes ([2]; wild type mice, +PIA): increase lipolysis
lipolysis in adipocytes ([2]; β3 -AR-deficient mice, +PIA): increase lipolysis

CC(C)(C)NCC(O)COc1cccc2[nH]c(=O)[nH]c12 (stereo not shown) [CGP-12177]
increase in oxygen consumption (human β3 -AR): twenty

C=C[C@@]1(C)CC(=O)[C@]2(O)[C@@]3(C)[C@@H](O)CCC(C)(C)[C@@H]3[C@H](O)[C@H](OC(C)=O)[C@@]2(C)O1 [forskolin]
lipolysis in adipocytes ([2]; wild type mice, +PIA): stimulate lipolysis
lipolysis in adipocytes ([2]; β3 -AR-deficient mice, +PIA): stimulate lipolysis

NC[C@H](O)c1ccc(O)c(O)c1 [norepinephrine]
stimulated oxygen consumption (β3 -AR [7]; 0.6 mg/kg subcutaneously, anesthetized with pentobarbital): not significantly reduced
